The conditions of data set [1]: cited from earlier work.
The target in another data set is T1, hOAT3 (Homo sapiens, UniProt Q8TCC7).
T1 construct: expressed in transfected cells; host or cells: HEK-293 (293) cells, pEBTetD plasmid, doxycycline-induced
T1 sequence (Q8TCC7 1-542): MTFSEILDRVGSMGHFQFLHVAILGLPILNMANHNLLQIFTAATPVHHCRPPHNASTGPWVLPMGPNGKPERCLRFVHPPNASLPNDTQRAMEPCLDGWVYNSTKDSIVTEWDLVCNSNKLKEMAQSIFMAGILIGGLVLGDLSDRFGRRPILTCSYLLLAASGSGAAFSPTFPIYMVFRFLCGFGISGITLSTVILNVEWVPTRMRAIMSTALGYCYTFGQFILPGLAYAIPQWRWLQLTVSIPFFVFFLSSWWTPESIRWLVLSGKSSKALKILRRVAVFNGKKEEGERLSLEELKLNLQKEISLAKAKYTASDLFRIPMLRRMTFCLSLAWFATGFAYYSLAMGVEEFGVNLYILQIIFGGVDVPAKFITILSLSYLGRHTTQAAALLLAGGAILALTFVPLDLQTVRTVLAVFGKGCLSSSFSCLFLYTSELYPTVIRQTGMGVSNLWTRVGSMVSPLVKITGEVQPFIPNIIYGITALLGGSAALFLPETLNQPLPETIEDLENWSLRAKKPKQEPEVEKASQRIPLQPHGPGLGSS
In words: Inhibition of hOAT3-mediated E3S uptake, stably transfected 293 cells. The format is cell-based. As to conditions: substrate 3 µM E3S, median (95% CI). From the text:
(§1) We characterized the inhibitory potential of iohexol on major drug transporters recommended by regulatory agencies, which were previously assessed in a clinical transporter phenotyping cocktail study. These transporters include hOAT1, hOAT3, hOCT1, hOCT2, hMATE1, hMATE2K, human organic anion transporter polypeptides (hOATP)1B1, hOATP1B3, and human multidrug resistance protein (hMDR)1. Additionally, we investigated whether iohexol is a substrate for any of the renal transporters among these, including hOAT1/3, hOCT1/2, and hMATE1/2K. Cell‐based uptake assays were used to assess the activities of hOAT1/3, hOCT1/2, hMATE1/2K, and hOATP1B1/1B3. Inside‐out membrane vesicle uptake assays were used to evaluate the activity of hMDR1.
(§2) To determine the maximal inhibitory potential of iohexol, intracellular accumulation of a standard substrate was measured with and without the clinically relevant highest concentrations of iohexol. Control inhibitors were tested in each experiment.
(§3) In all subsequent in vitro studies, control experiments were conducted to validate the results. These included positive controls for substrates and inhibitors, as well as cells either without transporter expression or transfected with an empty vector, and control vesicles. Each condition, including cells or vesicles with the transporter and their respective controls, was analyzed in at least three replicates. For detailed information on materials, methods, and data analysis techniques used, refer to the Supporting Information. […]
(§4) R version 4.2.1 (R Foundation for Statistical Computing, Vienna, Austria) was used for statistical evaluations and data visualization. The data analysis approach for the in vitro study was detailed by Hsin CH et al..^1 In brief, for transport assays, the initial uptake rate was calculated by normalizing the substrate concentration to both the protein concentration and the incubation time for each dish or well. The transporter-mediated uptake rate (net uptake) was determined by performing an element-wise subtraction of uptake rates from different conditions. […]

Details of data set [2]: method as in PMID 32989831, PMID 30449032. The settings on record: cited from earlier work.
A further data set deals with T2, hOCT2 (Homo sapiens, UniProt O15244).
T2 construct: expressed in transfected cells; host or cells: HEK-293 (293) cells, pEBTetD plasmid, doxycycline-induced
T2 sequence (O15244 1-555): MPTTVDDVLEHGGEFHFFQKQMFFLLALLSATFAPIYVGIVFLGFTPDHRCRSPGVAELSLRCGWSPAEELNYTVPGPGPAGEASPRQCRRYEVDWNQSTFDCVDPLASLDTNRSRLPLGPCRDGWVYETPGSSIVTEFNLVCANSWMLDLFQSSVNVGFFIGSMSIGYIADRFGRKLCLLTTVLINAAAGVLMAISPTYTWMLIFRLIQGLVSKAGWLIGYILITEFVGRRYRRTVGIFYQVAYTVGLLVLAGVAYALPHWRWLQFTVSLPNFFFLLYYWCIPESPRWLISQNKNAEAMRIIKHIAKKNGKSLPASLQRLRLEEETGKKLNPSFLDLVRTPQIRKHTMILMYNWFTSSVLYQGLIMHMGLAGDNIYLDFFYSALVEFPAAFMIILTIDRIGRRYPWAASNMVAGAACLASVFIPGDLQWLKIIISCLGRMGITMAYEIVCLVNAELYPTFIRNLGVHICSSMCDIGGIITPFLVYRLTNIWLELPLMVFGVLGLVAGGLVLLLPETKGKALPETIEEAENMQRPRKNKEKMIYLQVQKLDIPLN
In words: Inhibition of hOCT2-mediated metformin uptake, stably transfected 293 cells. The format is cell-based. The settings on record: substrate 5 µM metformin, median (95% CI).
Description: as §1, §2, §3, §4

Setting [3] is: HEK293, 1 mM iohexol, read-out: Inhibitory effect (% reduction of specific activity).
Setting [4] is: HEK293, 20 mM iohexol, read-out: Inhibitory effect (% reduction of specific activity).

Structures are written as SMILES.

As to `CC(=O)N(CC(O)CO)c1c(I)c(C(=O)NCC(O)CO)c(I)c(C(=O)NCC(O)CO)c1I` (stereo not drawn) [iohexol], the “Volume of distribution, previous three-compartment model estimate (median)” value in data set [1] was 15.09 L. For the same compound, the Cmax in data set [1] (following a 3235 mg iohexol injection, patients aged ≥ 70 years, median GFR 60.7 mL/min/1.73 m^2, read-out: Cmax (initial plasma concentration)) was approximately 370 µM. For the same compound, the “Inhibitory effect (% reduction of specific activity)” value on hOAT3 (20 mM iohexol) and on hOCT2 (20 mM iohexol) was “no notable inhibitory effects” in each case. The inhibition at 1000 µM on hOAT3 (setting [3]) is -4%; at hOCT2 (setting [3]) it was -13%. Further, the inhibition at 20000 µM at hOAT3 (setting [4]) was -3.5%; at hOCT2 (setting [4]), -23%. The “Iohexol clearance under OCT2 and MATE inhibitors” value in data set [2] was “unaffected”.

Source of the values: PMC11788587, “Validating Low‐Dose Iohexol as a Marker for Glomerular Filtration Rate by In Vitro and In Vivo Studies” (Clinical and Translational Science, 2025).
